Test results: ChEMBL document CHEMBL1201862, “PubChem BioAssay data set” (2004)
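Exposure lasted 48 hours, with cells grown in 96-well plates and compounds tested at five concentrations. GI50: concentration for 50% inhibition of growth.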 Active and inactive are the calls of the source. Rule as the data show it: active = GI50 up to about 1.1 µM and inactive = higher.

Assays:
Experiment in all cases: inhibition of tumour cell growth, NCI panel, 48 h
SNB-19 = system: SNB-19
K562 = system: K562
NCI-H522 = system: NCI-H522
HL-60 = system: HL-60
A549 = system: A549
NCI-H460 = system: NCI-H460
786-0 = system: 786-0
UACC-62 = system: UACC-62
IGROV-1 = system: IGROV-1
RXF 393 = system: RXF 393
Hs-578T = system: Hs-578T
EKVX = system: EKVX
BT-549 = system: BT-549
TK-10 = system: TK-10
SK-MEL-2 = system: SK-MEL-2
SF-539 = system: SF-539
KM12 = system: KM12
PC-3 = system: PC-3
SN12C = system: SN12C
SW-620 = system: SW-620
OVCAR-3 = system: OVCAR-3
MDA-N = system: MDA-N
MDA-MB-435 = system: MDA-MB-435
SK-MEL-28 = system: SK-MEL-28
NCI/ADR-RES = system: NCI/ADR-RES
OVCAR-8 = system: OVCAR-8
OVCAR-4 = system: OVCAR-4
UACC-257 = system: UACC-257
RPMI-8226 = system: RPMI-8226
UO-31 = system: UO-31
M14 = system: M14
NCI-H226 = system: NCI-H226
MOLT-4 = system: MOLT-4
HOP-92 = system: HOP-92
Malme-3M = system: Malme-3M
MCF7 = system: MCF7
HCT-116 = system: HCT-116
U-251 = system: U-251
ACHN = system: ACHN
NCI-H23 = system: NCI-H23
CAKI-1 = system: CAKI-1
SK-OV-3 = system: SK-OV-3
SNB-75 = system: SNB-75
T47D = system: T47D
MDA-MB-231 = system: MDA-MB-231
SR = system: SR
HCT-15 = system: HCT-15
SK-MEL-5 = system: SK-MEL-5
DU-145 = system: DU-145
HCC 2998 = system: HCC 2998
HOP-62 = system: HOP-62
COLO 205 = system: COLO 205
SF-295 = system: SF-295
LOX IMVI = system: LOX IMVI
HT-29 = system: HT-29
CCRF-CEM = system: CCRF-CEM
OVCAR-5 = system: OVCAR-5
SF-268 = system: SF-268

Structure (SMILES): Cc1ccc(-c2nc(N/N=C/c3ccc(O)cc3)c3ccccc3n2)cc1
- GI50 (SNB-19): 26.6 µM (inactive)
- GI50 (K562): 22.8 µM (inactive)
- GI50 (NCI-H522): 14.2 µM (inactive)
- GI50 (HL-60): 17.2 µM (inactive)
- GI50 (A549): 6.14 µM (inactive)
- GI50 (NCI-H460): 9.91 µM (inactive)
- GI50 (786-0): 22.8 µM (inactive)
- GI50 (UACC-62): 12.3 µM (inactive)
- GI50 (IGROV-1): 8.47 µM (inactive)
- GI50 (RXF 393): 21 µM (inactive)
- GI50 (Hs-578T): 35.7 µM (inactive)
- GI50 (EKVX): 3.98 µM (inactive)
- GI50 (BT-549): 28 µM (inactive)
- GI50 (TK-10): 24.3 µM (inactive)
- GI50 (SK-MEL-2): 15.8 µM (inactive)
- GI50 (SF-539): 27.3 µM (inactive)
- GI50 (KM12): 13.5 µM (inactive)
- GI50 (PC-3): 9.06 µM (inactive)
- GI50 (SN12C): 8.2 µM (inactive)
- GI50 (SW-620): 19 µM (inactive)
- GI50 (OVCAR-3): 4.29 µM (inactive)
- GI50 (MDA-N): 7.87 µM (inactive)
- GI50 (MDA-MB-435): 10.8 µM (inactive)
- GI50 (SK-MEL-28): 17.8 µM (inactive)
- GI50 (NCI/ADR-RES): 20.4 µM (inactive)
- GI50 (OVCAR-8): 22.9 µM (inactive)
- GI50 (OVCAR-4): 1.55 µM (inactive)
- GI50 (UACC-257): 4.06 µM (inactive)
- GI50 (RPMI-8226): 40.7 µM (inactive)
- GI50 (UO-31): 5.47 µM (inactive)
- GI50 (M14): 5.02 µM (inactive)
- GI50 (NCI-H226): 21.5 µM (inactive)
- GI50 (MOLT-4): 20.5 µM (inactive)
- GI50 (HOP-92): 32.4 µM (inactive)
- GI50 (Malme-3M): 13.8 µM (inactive)
- GI50 (MCF7): 10.2 µM (inactive)
- GI50 (HCT-116): 14.1 µM (inactive)
- GI50 (U-251): 19.8 µM (inactive)
- GI50 (ACHN): 7.21 µM (inactive)
- GI50 (NCI-H23): 7.31 µM (inactive)
- GI50 (CAKI-1): 10.8 µM (inactive)
- GI50 (SK-OV-3): 20.3 µM (inactive)
- GI50 (SNB-75): 16.8 µM (inactive)
- GI50 (T47D): 5.22 µM (inactive)
- GI50 (MDA-MB-231): 19.4 µM (inactive)
- GI50 (SR): 39.4 µM (inactive)
- GI50 (HCT-15): 16.4 µM
- GI50 (SK-MEL-5): 3.51 µM (inactive)
- GI50 (DU-145): 21.8 µM (inactive)
- GI50 (HCC 2998): 14.1 µM (inactive)
- GI50 (HOP-62): 31.9 µM (inactive)
- GI50 (COLO 205): 23.4 µM (inactive)
- GI50 (SF-295): 17.9 µM (inactive)
- GI50 (LOX IMVI): 13.2 µM (inactive)
- GI50 (HT-29): 27.7 µM (inactive)
- GI50 (CCRF-CEM): 15.8 µM (inactive)
- GI50 (OVCAR-5): 20.3 µM (inactive)
- GI50 (SF-268): 18.8 µM (inactive)

Structure (SMILES): O=c1oc2ccc([N+](=O)[O-])cc2cc1-c1csc(-c2ccccc2)n1
- GI50 (SNB-19): > 100 µM (inactive)
- GI50 (K562): > 100 µM (inactive)
- GI50 (NCI-H522): > 100 µM (inactive)
- GI50 (HL-60): > 100 µM (inactive)
- GI50 (A549): > 100 µM (inactive)
- GI50 (NCI-H460): > 100 µM (inactive)
- GI50 (786-0): > 100 µM (inactive)
- GI50 (UACC-62): > 100 µM (inactive)
- GI50 (IGROV-1): > 100 µM (inactive)
- GI50 (RXF 393): > 100 µM (inactive)
- GI50 (Hs-578T): > 100 µM (inactive)
- GI50 (EKVX): > 100 µM (inactive)
- GI50 (BT-549): > 100 µM (inactive)
- GI50 (TK-10): > 100 µM (inactive)
- GI50 (SK-MEL-2): > 100 µM (inactive)
- GI50 (SF-539): > 100 µM (inactive)
- GI50 (KM12): > 100 µM (inactive)
- GI50 (PC-3): > 100 µM (inactive)
- GI50 (SN12C): > 100 µM (inactive)
- GI50 (SW-620): > 100 µM (inactive)
- GI50 (MDA-N): > 100 µM (inactive)
- GI50 (MDA-MB-435): > 100 µM (inactive)
- GI50 (SK-MEL-28): > 100 µM (inactive)
- GI50 (NCI/ADR-RES): > 100 µM (inactive)
- GI50 (OVCAR-8): > 100 µM (inactive)
- GI50 (OVCAR-4): > 100 µM (inactive)
- GI50 (UACC-257): > 100 µM (inactive)
- GI50 (RPMI-8226): > 100 µM (inactive)
- GI50 (UO-31): > 100 µM (inactive)
- GI50 (M14): > 100 µM (inactive)
- GI50 (NCI-H226): > 100 µM (inactive)
- GI50 (MOLT-4): > 100 µM (inactive)
- GI50 (HOP-92): > 100 µM (inactive)
- GI50 (Malme-3M): 32.6 µM (inactive)
- GI50 (MCF7): > 100 µM (inactive)
- GI50 (HCT-116): > 100 µM (inactive)
- GI50 (U-251): > 100 µM (inactive)
- GI50 (ACHN): > 100 µM (inactive)
- GI50 (CAKI-1): > 100 µM (inactive)
- GI50 (SK-OV-3): > 100 µM (inactive)
- GI50 (SNB-75): 0.817 µM (active)
- GI50 (T47D): > 100 µM (inactive)
- GI50 (MDA-MB-231): > 100 µM (inactive)
- GI50 (SR): > 100 µM (inactive)
- GI50 (HCT-15): > 100 µM
- GI50 (SK-MEL-5): > 100 µM (inactive)
- GI50 (DU-145): > 100 µM (inactive)
- GI50 (HCC 2998): > 100 µM (inactive)
- GI50 (HOP-62): > 100 µM (inactive)
- GI50 (COLO 205): > 100 µM (inactive)
- GI50 (SF-295): > 100 µM (inactive)
- GI50 (LOX IMVI): > 100 µM (inactive)
- GI50 (HT-29): > 100 µM (inactive)
- GI50 (CCRF-CEM): > 100 µM (inactive)
- GI50 (OVCAR-5): > 100 µM (inactive)
- GI50 (SF-268): > 100 µM (inactive)
